For series [1] the following is noted: water; cited from earlier work.
Series [2] deals with patients with type 1 diabetes. In words: Phase III crossover study, intranasal vs IM glucagon after insulin-induced hypoglycemia (Example 9). The format is in vivo, human. The note with it: post-dosing. The procedure: A multiple center, randomized, two-way, crossover Phase III study in which patients with type 1 diabetes (T1D, n=75) were enrolled to evaluate the effectiveness and safety of a single dose of intranasally administered glucagon (the powder that is the subject of this invention) compared to glucagon administered by IM injection following insulin-induced hypoglycemia was conducted. The primary endpoint in this study was the proportion of patients who achieved an increase in blood glucose levels to ≥70 mg/dL within 30 minutes of treatment with glucagon or a […] increment in blood glucose within 30 minutes of treatment with glucagon. The protocol used insulin to reduce blood glucose levels to the hypoglycemic range (target nadir of <50 mg/dL).

The next series deals with adults with hypoglycemia. The following applies: cited from earlier work.
Series [3] has as its system children with type 1 diabetes with induced hypoglycemia. The note with it: injected (SC) (Stenninger 1993); cited from earlier work.

Like-named read-outs stand apart in the source and are kept apart here.

Regarding hydroxylpropyl-β-CD [HP-β-CD], the Aqueous solubility result in series [1] was “higher aqueous solubility than α-CD”.

As to glucagon [injected glucagon], in series [2], the “Time by which blood glucose increased to within the normal range in most subjects” value is “about 15 minutes”. The “Time for which glucose levels continued to increase after administration” value is “at least 90 minutes” in the series with adults with hypoglycemia (adults with hypoglycemia, injected (Hvidberg 1994; Rosenfalck 1992)) and “at least 90 minutes” in the series with adults with hypoglycemia (healthy adults with insulin induced hypoglycemia, injected (Hvidberg 1994)). Also, the “Time after dosing at which glucose levels reach a plateau” value in the series with adults with hypoglycemia (adults with type 1 diabetes and insulin-induced hypoglycemia, injected (Rosenfalck 1992)) is recorded as “at least 90 minutes”. For the same substance, the “Time for which plasma glucose levels continued to rise” value in series [3] was “at least 45 minutes”.

These data come from patent US12370241B2, “Nasal powder formulation for treatment of hypoglycemia” (AMPHASTAR PHARMACEUTICALS, INC., priority 2015, dated 2025).
